{"source": "patent US20260374754A1", "about": "“N-((ISOQUINOLIN-6-YL)METHYL)-1H-PYRAZOLE-4-CARBOXAMIDE DERIVATIVES AS PLASMA KALLIKREIN INHIBITORS FOR THE TREATMENT OF HEREDITARY ANGIODEMA” (Takeda Pharmaceutical Company Limited, priority 2022, published 2026)", "note": "Where a name gives a salt, the structure may show the parent alone."}
{"biological_target": "human activated kallikrein enzyme (Homo sapiens, UniProt P03952)", "sequence (P03952 391-638 limits assumed)": "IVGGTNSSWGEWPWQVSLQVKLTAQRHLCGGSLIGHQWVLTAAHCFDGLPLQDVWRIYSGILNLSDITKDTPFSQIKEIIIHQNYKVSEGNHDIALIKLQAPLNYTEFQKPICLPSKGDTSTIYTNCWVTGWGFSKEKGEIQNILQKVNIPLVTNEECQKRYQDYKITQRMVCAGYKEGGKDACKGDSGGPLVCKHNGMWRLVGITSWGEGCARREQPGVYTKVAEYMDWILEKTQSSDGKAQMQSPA", "sequence (P03952 20-390 partner limits assumed)": "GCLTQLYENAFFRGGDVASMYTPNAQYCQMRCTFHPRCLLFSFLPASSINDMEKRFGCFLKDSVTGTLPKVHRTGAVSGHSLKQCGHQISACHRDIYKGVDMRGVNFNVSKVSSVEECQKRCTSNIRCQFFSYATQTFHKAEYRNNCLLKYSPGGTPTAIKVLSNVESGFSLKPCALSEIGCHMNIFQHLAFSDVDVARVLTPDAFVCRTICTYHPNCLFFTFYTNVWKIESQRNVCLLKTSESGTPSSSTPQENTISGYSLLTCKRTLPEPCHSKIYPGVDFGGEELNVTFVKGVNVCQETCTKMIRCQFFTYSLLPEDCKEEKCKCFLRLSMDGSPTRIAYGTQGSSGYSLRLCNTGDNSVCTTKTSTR", "test": "Inhibition of human activated plasma kallikrein, fluorogenic PFR-AMC substrate, 500 pM enzyme format", "type": "biochemical", "details": "500 pM activated kallikrein; 300 μM PFR-AMC; 30 min preincubation; 10 min room temperature; pH 7.5; read-out: Primary Dose Response Assay: Average EC50", "summary_of_the_method": "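500 pM activated kallikrein preincubated 30 min at room temperature with inhibitors in pH 7.5 Tris/EDTA/NaCl buffer with PEG-400 and Triton X-100. Reaction started with 300 μM PFR-AMC, run 10 min at room temperature; AMC fluorescence read at ex 380/em 460 nm.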", "units": {"EC50": "nM"}}
{"smiles": "Cc1cc2c(N)nccc2c(C)c1CNc1cc(OCc2cn3cc(C4CC4)ccc3n2)nc(CCC(=O)O)n1", "note": "[Example 293, 3-(4-(((1-amino-5,7-dimethylisoquinolin-6-yl)methyl)amino)-6-((6-cyclopropylimidazo[1,2-a]pyridin-2-yl)methoxy)pyrimidin-2-yl)propanoic acid]", "EC50": "< 1"}
{"smiles": "Cc1ccc2ncc(COc3cc(NCc4c(C)cc5c(N)nccc5c4C)ncn3)cc2c1", "note": "[Example 372, 5,7-dimethyl-6-(((6-((6-methylquinolin-3-yl)methoxy)pyrimidin-4-yl)amino)methyl)isoquinolin-1-amine formic acid salt]", "EC50": "1 to 10"}
{"smiles": "Cc1cc2c(N)nccc2c(C)c1CNC(=O)c1cnn(Cc2cn3cc(C(F)(F)F)ccc3n2)c1", "note": "[Example 201, N-((1-amino-5,7-dimethylisoquinolin-6-yl)methyl)-1-((6-(trifluoromethyl)imidazo[1,2-a]pyridin-2-yl)methyl)-1H-pyrazole-4-carboxamide]", "EC50": "< 1"}
{"smiles": "COc1ccc2cc(Cn3cc(C(=O)NCc4c(C)cc5c(N)nccc5c4C)cn3)cnc2c1", "note": "[Example 111, N-((1-amino-5,7-dimethylisoquinolin-6-yl)methyl)-1-((7-methoxyquinolin-3-yl)methyl)-1H-pyrazole-4-carboxamide]", "EC50": "< 1"}
{"smiles": "CCOC(=O)CCc1nc(NCc2c(C)cc3c(N)nccc3c2C)cc(OCc2nc3ccc(C4CC4)cn3n2)n1", "note": "[Example 292, ethyl 3-(4-(((1-amino-5,7-dimethylisoquinolin-6-yl)methyl)amino)-6-((6-cyclopropyl-[1,2,4]triazolo[1,5-a]pyridin-2-yl)methoxy)pyrimidin-2-yl)propanoate]", "EC50": "10 to 100"}
{"smiles": "Cc1ccc2cc(CNc3cc(NCc4c(C)cc5c(N)nccc5c4C)ncn3)ccc2n1", "note": "[Example 335, N^4-((1-amino-5,7-dimethylisoquinolin-6-yl)methyl)-N^6-((2-methylquinolin-6-yl)methyl)pyrimidine-4,6-diamine]", "EC50": "< 1"}
{"smiles": "Cc1cc2c(N)nccc2c(C)c1CNC(=O)c1cnn(CC(=O)Nc2ccccc2)c1", "note": "[Example 154, N-((1-amino-5,7-dimethylisoquinolin-6-yl)methyl)-1-(2-oxo-2-(phenylamino)ethyl)-1H-pyrazole-4-carboxamide]", "EC50": "100 to 1000"}
{"smiles": "Cc1cc2c(N)nccc2c(C)c1CNc1cc(OCc2ccc(CN3CCCCC3=O)cc2)cnn1", "note": "[Example 433, 1-(4-(((6-(((1-amino-5,7-dimethylisoquinolin-6-yl)methyl)amino)pyridazin-4-yl)oxy)methyl)benzyl)piperidin-2-one]", "EC50": "< 1"}
{"smiles": "Cc1cc2c(N)nccc2c(C)c1CNc1cc2c(cn1)cnn2Cc1ccc(Cn2cccn2)cc1", "note": "[Example I-458, 6-(((1-(4-((1H-pyrazol-1-yl)methyl)benzyl)-1H-pyrazolo[4,3-c]pyridin-6-yl)amino)methyl)-5,7-dimethylisoquinolin-1-amine]", "EC50": "1 to 10"}
{"smiles": "Cc1cc2c(N)nccc2c(C)c1CNc1cc(OCc2ccc(Cn3cccn3)nc2)cnn1", "note": "[Example 445, 6-(((5-((6-((1H-pyrazol-1-yl)methyl)pyridin-3-yl)methoxy)pyridazin-3-yl)amino)methyl)-5,7-dimethylisoquinolin-1-amine]", "EC50": "100 to 1000"}
{"smiles": "Cc1cc2c(N)nccc2c(C)c1CNc1cc(NC(C)c2ccc(Cc3ccccn3)cc2)ncn1", "note": "(stereo not shown) [Example 366, N^4-((1-amino-5,7-dimethylisoquinolin-6-yl)methyl)-N^6-(1-(4-(pyridin-2-ylmethyl)phenyl)ethyl)pyrimidine-4,6-diamine]", "EC50": "< 1"}
{"smiles": "Cc1cc2c(N)nccc2c(C)c1CNc1cc(OC(C)c2cn3nc(C4CC4)ccc3n2)ncn1", "note": "(stereo not shown) [Example 493, 6-(((6-(1-(6-cyclopropylimidazo[1,2-b]pyridazin-2-yl)ethoxy)pyrimidin-4-yl)amino)methyl)-5,7-dimethylisoquinolin-1-amine]", "EC50": "10 to 100"}
{"smiles": "Cc1cc2c(N)nccc2c(C)c1CNC(=O)c1cnn(Cc2nc3ccccc3o2)c1", "note": "[Example 85, N-((1-amino-5,7-dimethylisoquinolin-6-yl)methyl)-1-(benzo[d]oxazol-2-ylmethyl)-1H-pyrazole-4-carboxamide]", "EC50": "10 to 100"}
